These results are taken from ChEMBL document CHEMBL3797131, “Discovery and optimization of 1,7-disubstituted-2,2-dimethyl-2,3-dihydroquinazolin-4(1H)-ones as potent and selective PKCθ inhibitors” (Bioorg Med Chem, 2016).

The structures appear in SMILES notation.

Holding throughout (assay type): ADME, organism-based
Data set [1] in a line: Clearance in Balb/c mouse at 1 mg/kg, po and 0.1 mg/kg, iv. Conditions: in vivo.
Data set [2] can be described thus: AUC in Balb/c mouse at 1 mg/kg, po. To be noted: in vivo.
The nature of data set [3]: Oral bioavailability in Balb/c mouse at 1 mg/kg. To be noted: in vivo.
Data set [4] in a line: Plasma concentration in Balb/c mouse at 10 mg/kg to 100 mg/kg, po after 4 hrs.

In general, AUC refers to the area under the concentration-time curve, a measure of exposure. Usually bioavailability stands for dose-corrected exposure relative to a reference, in per cent. The low end stands for poor availability, the high end for good availability. In turn, `CC1(C)NC(=O)c2ccc(-n3c(=O)[nH]c4ncccc43)cc2N1Cc1ccccc1` had a clearance in data set [1] of 143 mL/min/kg. Moreover, in data set [2], the area under the curve (AUC) is 16 ng·h/mL. In data set [3], this molecule had a bioavailability of 12%.
For `C[C@@H](c1ccccc1)N1c2cc(-n3c(=O)[nH]c4ncccc43)ccc2C(=O)NC1(C)C` the same measures were 107 mL/min/kg, 11 ng·h/mL and 7%.
Turning to `C[C@H](c1ccccc1)N1c2cc(-n3c(=O)[nH]c4ncccc43)ccc2C(=O)NC1(C)C`, in data set [1], the clearance is 27.3 mL/min/kg. In data set [2], the AUC is 172 ng·h/mL. This molecule gave a concentration at 4 h in data set [4] of 2000 nM. Besides, in data set [3], the bioavailability came to 28%.
